In article PMC10349806 (Nature Communications, 2023):
Values joined by “and” are separate entries in the source; they are usually repeats but may differ in a detail not shown here. Equal entries are not always repeated.

Key:
PfCRT variant F291A = target: T1, PfCRT variant F291A (Plasmodium falciparum, UniProt Q9N623, A220S/F291A/I356T/K76T/M74I/N326S/N75E/Q271E/R371I); assay: CQ uptake assay, oocytes expressing F291A; assay type: cell-based
T1 sequence (Q9N623 1-424 M74I/N75E/K76T/A220S/Q271E/F291A/N326S/I356T/R371I): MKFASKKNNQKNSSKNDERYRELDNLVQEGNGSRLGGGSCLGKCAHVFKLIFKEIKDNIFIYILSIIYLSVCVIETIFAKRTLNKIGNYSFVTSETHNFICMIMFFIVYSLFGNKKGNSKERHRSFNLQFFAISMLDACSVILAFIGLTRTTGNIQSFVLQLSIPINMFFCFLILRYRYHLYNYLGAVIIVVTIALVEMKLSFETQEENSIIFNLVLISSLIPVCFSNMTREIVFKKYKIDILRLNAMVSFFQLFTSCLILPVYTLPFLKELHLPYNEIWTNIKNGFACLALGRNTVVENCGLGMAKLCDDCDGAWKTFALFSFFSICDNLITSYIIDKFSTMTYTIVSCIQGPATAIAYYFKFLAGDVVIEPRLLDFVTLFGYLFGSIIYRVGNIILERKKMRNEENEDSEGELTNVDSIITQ
Method: (§1) Site-directed mutagenesis of PfCRT^Dd2 was performed as described using the megaprimer method with overlap extension[21],[54]. The primer pairs used are listed in Supplementary Table 6. Please note that a codon-optimized and oocyte-adapted version of PfCRT^Dd2 was used[22] (Supplementary Fig. 16). The resulting DNA fragment was cloned into the SP64T expression vector and verified by sequencing.
(§2) Oocytes were obtained as described previously. Briefly, adult (>2 years old) female X. laevis frogs (NASCO) were anesthetized in a cooled solution of ethyl 3-amino benzoate methanesulfonate (0.1%, w/v), followed by a surgical removal of parts of the ovary. The ovary lobes were carefully dissected and small pieces of oocytes were incubated in Ca^2+-free ND96 buffer (96 mM NaCl, 2 mM KCl, 1 mM MgCl2 buffered with 5 mM HEPES/NaOH, pH 7.5) supplemented with collagenase D (0.1%, w/v; Roche), BSA (0.5%, w/v), and 9 mm Na2HPO4 at 18 °C for 14-16 h while gentle shaking. After incubation, the oocytes were carefully washed several times with ND96 buffer (96 mM NaCl, 2 mM KCl, 1.8 mM CaCl2, 1 mM MgCl2 buffered with 5 mM HEPES/NaOH, pH 7.5) supplemented with 100 mg l^−1 gentamycin). Defolliculated and healthy-looking stage V-VI oocytes were manually selected for RNA microinjection. The RNA was generated as following: The codon-optimized sequences of PfCRT variants were cloned into the pSP64T expression vector. After vector linearization using the restriction endonucleases BamHI or SalI (New England Biolabs), transcription was performed using the in vitro SP6 mMessage mMachine Kit (Ambion)[34]. The obtained RNA was kept at −80 °C and diluted with nuclease-free water to a concentration of 0.6 μg μl^−1. Precision-bore glass capillary tubes (3.5-inch glass capillaries; Drummond Scientific Co.) were pulled on a vertical puller (P-87 Flaming/Brown micropipette puller, Sutter Instrument Co.), graduated, and placed on a microinjector (Nanoject II Auto-Nanoliter Injector, Drummond Scientific Co.). 50 nl of nuclease-free water alone (control oocytes) or 50 nl of 0.6 μg μl^−1 RNA were injected under stereomicroscopic control. Injected oocytes were incubated for 46–72 h at 18 °C with twice-daily buffer changes before usage in experiments.
Drug uptake assays were performed as described previously[21],[22],[24],[34]. […] The direction of radio-labeled drug transport is here from the mostly acidic extracellular solution (pH 4.5 or 6.0, as indicated) into the oocyte cytosol (pH ∼ 7.2), which corresponds to the efflux of drug from the acidic digestive vacuole (pH 5.2) into the parasite cytoplasm (pH 7.2). The topology of PfCRT in the oolemma is such that both the N- and C-terminus face the extracellular milieu[3],[22]. In the parasite, the N- and C-terminus face the lumen of the digestive vacuole. CQ uptake kinetics were performed by incubating oocytes in ND96 buffer adjusted to a pH of 4.5, 5.0, 5.5, or 6.0 and supplemented with 50 nM [^3H]CQ and one of 7 different CQ concentrations (10 µM, 50 µM, 100 µM, 200 µM, 300 µM, 400 µM, 500 µM CQ). The reaction was stopped at the 60 min time point, which is in the linear uptake range[22],[34] (Supplementary Fig. 17). […] The radioactivity of each sample was measured using a liquid scintillation analyzer Tri-Carb 4910 TR (PerkinElmer). Oocytes that were injected with water instead of RNA were analyzed in parallel, representing the uptake of a drug by diffusion and/or endogenous permeation pathways. […]

PfCRT variant E207Q = assay: CQ uptake assay, oocytes expressing E207Q; assay type: cell-based, Plasmodium falciparum
Method: as §1, §2
Drug uptake assays were performed as described previously[21],[22],[24],[34]. […] The direction of radio-labeled drug transport is here from the mostly acidic extracellular solution (pH 4.5 or 6.0, as indicated) into the oocyte cytosol (pH ∼ 7.2), which corresponds to the efflux of drug from the acidic digestive vacuole (pH 5.2) into the parasite cytoplasm (pH 7.2). The topology of PfCRT in the oolemma is such that both the N- and C-terminus face the extracellular milieu[3],[22]. In the parasite, the N- and C-terminus face the lumen of the digestive vacuole. […] For determination of the amount of drug uptake for each oocyte, the reaction medium was removed and the oocytes were washed three times with 2 ml of ice-cold ND96 buffer. Each oocyte was individually transferred to a scintillation vial containing 5% sodium dodecyl sulfate (200 μl) for lysis. […] Oocytes that were injected with water instead of RNA were analyzed in parallel, representing the uptake of a drug by diffusion and/or endogenous permeation pathways. […] The specific PfCRT-mediated uptake was determined by subtracting the corresponding background value measured in water-injected oocytes from that of PfCRT-expressing oocytes. […]

[1] = F291A, 50 µM CQ, 1 h, mean ± SEM

CCN(CC)CCCC(C)Nc1ccnc2cc(Cl)ccc12 (stereo not shown) [CQ, chloroquine]
Activity at pH 4.5 (PfCRT variant F291A; [1]): 1.61 ± 0.31 pmol h-1 oocyte-1
Activity at pH 6.0 (PfCRT variant F291A; [1]): 3.23 ± 0.24 pmol h-1 oocyte-1
R-value (PfCRT variant F291A; F291A, CQ transport at pH 4.5 / pH 6.0): 0.52 ± 0.11
F291A transport activity pH 4.5 (PfCRT variant F291A; pH 4.5, single replicates, Fig 1d left): 1.94 pmol oocyte-1 h-1 and 2.47 pmol oocyte-1 h-1 and 0.96 pmol oocyte-1 h-1 and 1.07 pmol oocyte-1 h-1
F291A transport activity pH 6.0 (PfCRT variant F291A; pH 6.0, single replicates, Fig 1d left): 2.78 pmol oocyte-1 h-1 and 3.29 pmol oocyte-1 h-1 and 4.00 pmol oocyte-1 h-1 and 2.84 pmol oocyte-1 h-1
Activity at pH 4.5 (PfCRT variant E207Q; E207Q, 50 µM CQ, 1 h, mean ± SEM): 2.15 ± 0.52 pmol h-1 oocyte-1
R-value (PfCRT variant E207Q; E207Q, CQ transport at pH 4.5 / pH 6.0): 0.88 ± 0.01
E207Q transport activity pH 4.5 (PfCRT variant E207Q; pH 4.5, individual replicates, Fig 6b): 1.41 pmol oocyte-1 h-1 and 3.42 pmol oocyte-1 h-1 and 1.62 pmol oocyte-1 h-1
E207Q transport activity pH 6.0 (PfCRT variant E207Q; pH 6.0, individual replicates, Fig 6b): 1.59 pmol oocyte-1 h-1 and 3.69 pmol oocyte-1 h-1 and 1.95 pmol oocyte-1 h-1
E207Q R-value (PfCRT variant E207Q; ratio of activity pH 4.5 / pH 6.0): 0.89 and 0.93 and 0.83
